Results as given in patent US11034725B2, “Compositions and methods for treating cardiovascular disease” (Genentech, Inc., priority 2016, dated 2021).
“And” between values parts separate entries of the source, which are not always exact repeats. Equal entries are not always repeated. “Also recorded” adds a separate entry of the source. Bridge positions count the residues as written; N and C are the ends. Peptide text beside a SMILES is read from it.

Key:
LDLR ectodomain = biological target: T1, LDLR ectodomain (Homo sapiens, UniProt P01130); conditions: biolayer interferometry, Lipari et al. 2012; read-out: Kd, binding to LDLR, previously reported; cited from earlier work
T1 construct: purchased R & D Systems

PCSK9 [1] = biological target: T2, PCSK9 (Homo sapiens, UniProt Q8NBP7); conditions: Zhang et al. 2014; cited from earlier work
PCSK9Δhelix [2] = biological target: T3, PCSK9Δhelix (Homo sapiens, UniProt Q8NBP7); assay: Surface plasmon resonance biosensor-based affinity analysis (Example 4); assay type: binding
T3 construct: Human PCSK9 construct M1-Q692 with an engineered TEV site (residue deletion Y166, R167); made in house; host or cells: CHO

PCSK9 [3] = biological target: T2, PCSK9; assay: PCSK9/EGF(A) TR-FRET binding assay
PCSK9Δhelix [4] = biological target: T3, PCSK9Δhelix; assay: PCSK9Δhelix/Ab20 TR-FRET binding assay
His-EGF(A)-Fc = His-EGF(A)-Fc TR-FRET counterscreen; conditions: counterscreen, Example 7
PCSK9 [5] = biological target: T2, PCSK9; assay: Cell surface LDLR assay with HepG2 cells; assay type: cell-based; conditions: HepG2 cells
Description: HepG2 cells (ATCC; Manassas, Va.) were seeded into 48 well plates (Corning; Corning, N.Y.) at 1×10^5 cells per well in high glucose medium (DMEM, Gibco; Carlsbad, Calif.) containing 2 mM glutamine (Sigma), penicillin/streptomycin (Gibco) and 10% FBS (Sigma; St. Louis, Mo.) and incubated overnight. Then the medium was changed to DMEM containing 10% lipoprotein deficient serum (LPDS, Sigma). After 24 h, 15 μg/mL PCSK9 was incubated with peptides or Fab33 for 30 min, added to the cells and incubated at 37° C. for 4 h. Cells were rinsed with PBS and detached using Cell Dissociation Buffer in PBS (Gibco). After centrifugation, the resuspended cells were incubated with 1:20 anti LDLR antibody (Progen Biotechnik; Heidelberg, Germany) on ice for 10 min. The samples were then washed with PBS and incubated with 1:200 diluted goat anti mouse IgG (H+L) Alexa Fluor 488 (Invitrogen; Carlsbad, Calif.) on ice for 5 min. After two PBS washes, cells were re suspended in PBS containing 2.5 μg/mL of propidium iodide and analyzed on a dual laser flow cytometer (FACScan, Becton Dickinson; Franklin Lakes, N.J.). Relative fluorescence units (RFUs) were used to quantify LDLR expression levels on the HepG2 cell surface. Cell surface LDLR levels were expressed as percent of LDLR levels measured in the absence of PCSK9 (=control).
The effect of Compound 229 on PCSK9-mediated LDL receptor degradation was measured in a HepG2 cell assay as previously described (Zhang et al., J Biol Chem. 2014 Jan. 10; 289(2):942-55). Peptides at various concentrations were preincubated with 15 μg/mL PCSK9 in the presence of 0.5% DMSO for 30 min prior to the addition to cells. After a 4 h incubation, the cells were processed for measurements of LDL receptor surface levels by flow cytometry as described (Zhang et al., J Biol Chem. 2014 Jan. 10; 289(2):942-55) (FIG. 37).

PCSK9 [6] = biological target: T2, PCSK9; assay: Phage competition ELISA; assay type: binding; conditions: binding of peptide-displaying phage to PCSK9; listed as Pep2-8_K9gvpep4
Outline: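 Fixed sub-saturating peptide-phage concentration (80% of max binding signal) mixed with serially diluted synthetic peptides in PBT, added to plates bearing immobilized biotinylated PCSK9 or PCSK9Δhelix, 1 h at room temperature. Bound phage detected with anti-M13-HRP at OD450 nm; IC50 from curve fit, 3 independent repeats.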

PCSK9Δhelix [7] = biological target: T3, PCSK9Δhelix; assay: Phage competition ELISA; conditions: binding of peptide-displaying phage to PCSK9Δhelix
Description: The sequences of selected clones were fused to the N-terminus of M13 major coat protein (p8) using Kunkel mutagenesis method (Kunkel et al., Methods Enzymol 154, 367-82). The resulting construct was transformed to E. Coli. XL1 blue, single colony was grown in 1 mL 2YT supplemented with 50 μg/mL carbenicillin, 10 μg/mL Tetracycline and M13 KO7 helper phage at 37° C. for 2 h, Kanamycin was added to final concentration of 25 μg/mL, growth was continued at 37° C. for 6 h. The culture was transferred to 30 mL 2YT supplemented with 50 μg/mL carbenicillin and 25 μg/mL kanamycin and grown at 37° C. overnight. The next day, the phage was harvested and purified using the standard protocol (Tonikian et al. Nat Protoc. 2007; 2(6):1368-86). […] The bound phage was detected with anti-M13-HRP and the ELISA signal was read at OD450 nm. […] Sub-saturating phage concentration that gave 80% of maximum binding signal was determined by the binding curve.
IC50 measurements were performed by mixing a fixed sub-saturating concentration of peptide-displaying phage with a serial dilution of synthetic peptides in PBT buffer. […] The plates were then washed 10 times with PBT buffer and the bound phage was detected by anti-M13-HRP. […]

wildtype PCSK9: wildtype proprotein convertase subtilisin/kexin type 9
Kd (LDLR ectodomain): 130 nM and 170 nM

Ac-TAFTSWEEYLDWV-NH2 [Pep2-8V2A]
reduction of affinity for PCSK9 versus Pep2-8 (PCSK9 [1]): about 10 fold

CC[C@H](C)[C@@H]1NC(=O)[C@H](CCCNC(=N)N)NC(=O)[C@H](CCC(N)=O)NC(=O)[C@H](CC(C)C)NC(=O)[C@H](CC(N)=O)NC(=O)[C@H](Cc2c[nH]c3ccccc23)NC(=O)[C@@H]2CCCN2C(=O)[C@H](CC(C)C)NC(=O)[C@H](CCCNC(=N)N)NC(=O)[C@@H](NC(=O)CNC(=O)[C@H](CO)NC(=O)CNC(=O)[C@@H](NC(=O)[C@H](Cc2c[nH]c3ccccc23)NC(=O)[C@H](CC(=O)O)NC(=O)[C@H](CC(C)C)NC(=O)[C@H](Cc2ccc(O)cc2)NC(=O)[C@H](CCC(=O)O)NC(=O)[C@H](CCC(=O)O)NC(=O)[C@H](Cc2c[nH]c3ccccc23)NC(=O)[C@H](CO)NC(=O)[C@@H](NC(=O)[C@H](Cc2ccccc2)NC(=O)[C@@H](NC(=O)[C@@H](NC(C)=O)[C@@H](C)O)C(C)C)[C@@H](C)O)C(C)C)CSSC[C@@H](C(N)=O)NC(=O)[C@@H]2CCCN2C(=O)[C@H](CC(C)C)NC(=O)CNC1=O [Compound 19] (Ac-TVFTSWEEYLDWVGSGCRLPWNLQRIGLPC-NH2; disulfide 17-30)
Kd range for PCSK9Δhelix binding (PCSK9Δhelix [2]): sub-nanomolar range
Kd (PCSK9Δhelix [2]; Table 7, Target PCSK9Δhelix, SPR at 20° C., read-out: Kd): 0.0989 nM
inhibition in the PCSK9/EGF(A) binding assay (PCSK9 [3]): potent inhibitor
IC50 (PCSK9 [3]; TR-FRET, Example 7, read-out: PCSK9/EGF(A) IC50): 9 nM
inhibition in the PCSK9Δhelix/Ab20 binding assay (PCSK9Δhelix [4]): potent inhibitors
IC50 (PCSK9Δhelix [4]; TR-FRET, Example 7, read-out: PCSK9Δhelix/Ab20 IC50): 2 nM
IC50 (His-EGF(A)-Fc): > 50000 nM
EC50 (PCSK9 [5]; 15 μg/mL PCSK9, 4 h, FACS): ~500 nM
surface LDLR levels restored (PCSK9 [5]; maximal restoration, percent of control without PCSK9): 100%
IC50 in phage competition ELISA (PCSK9 [6]): low nanomolar range; also recorded: single digit nanomolar range
IC50 in phage competition ELISA (PCSK9Δhelix [7]): single digit nanomolar range
